Measured values from patent publication US20130281409A1, “Myelin Sheath Fatty Acids that Resolve Neuroinflammation” (priority 2012, published 2013).

Experiments:
[1] = tested on: EAE in PLP139-151-immunized SJL/J mice; assay: EAE, lipid administered prophylactically (co-immunization with PLP139-151); format: in vivo, mouse; conditions: 6 μg/injection; s.c. with PLP139-151 on day 0, i.p. on days 4 and 7
Method: Animal experiments were approved by, and performed in compliance with, the National Institute of Health guidelines of the Institutional Animal Care and Use Committee at Stanford University. For induction of EAE, 8- to 12-week-old female SJL/J mice (Jackson Laboratory) were immunized subcutaneously with 100 μg of PLP139-151 emulsified in CFA (Difco Laboratories). Three injections of PGPC (6 μg/mouse/injection) or vehicle (0.05% Tween-20 in PBS) were delivered on days 0, 4, and 7 after immunization with PLP139-151. On day 0, the lipid or vehicle was emulsified together with PLP139-151 in CFA and administered by subcutaneous injection. At subsequent time points, lipid or vehicle was injected intraperitoneally. EAE was assessed as previously described. To induce EAE in SJL/J mice (Jackson Mice), we immunized 8- to 12-week-old female animals subcutaneously with 100 μg of PLP139-151 emulsified in CFA (Difco Laboratories). Prophylactic administration of lipid: Three injections of PGPC or sphingomyelin (6 μg/mouse/injection) or vehicle (0.05% Tween-20 in PBS) were delivered on days 0, 4, and 7 after immunization with PLP139-151. […] Clinical disease was monitored daily using the following scoring system: 0, no disease; 1, limp tail; 2, hind limb weakness; 3, hind limb paralysis; 4, hind limb and forelimb paralysis; 5, death. […]

CD4+ T cells = assay: CD69 expression on lymph node cells from PGPC-treated EAE mice (flow cytometry); format: in vivo, mouse; conditions: lymph node cells of prophylactically treated EAE mice, cultured 4 days with 10 μg/ml PLP139-151
Method: FIG. 9. PGPC treatment of mice with EAE suppresses T-cell activation. (A) Expression of CD69 (an early marker of activation) on CD4+ and CD8+ propidium iodide-negative (i.e. live) lymphocytes isolated from PGPC—or vehicle-treated EAE mice and cultured for 4 days with 10 μg/ml of PLP139-151. The ratio of CD69+CD4+:CD69−CD4+ is 14.2%:39.6% for lymph node cells from vehicle-treated EAE mice, and 7.96%:55.2% for cells from PGPC-treated EAE mice. […] (B) Proliferation and (C) cytokine production of splenocytes isolated from the vehicle- or PGPC-treated EAE mice in panel A. Splenocytes from PGPC-treated mice (gray bars) secreted lower levels of IFN-γ and TNF in response to PLP139-151. *P<0.05, respectively, by Student's t-test comparing PLP139-151-stimulated cells from PGPC-treated mice with PLP139-151-stimulated cells from vehicle-treated mice.
PLP-stimulated cells from PLP139-151-immunized mice administered PGPC prophylactically: SJL/J mice were co-injected with PGPC and PLP139-151 in CFA and sacrificed 48 days later. Lymph node cells and splenocytes were then harvested and re-stimulated in vitro (2.5×10^6 cells/ml) with 10 μg/ml of PLP139-151 or with media alone. […]
Cells were stained according to standard protocols, run on a FACScan flow cytometer (BD Biosciences), and analysed with CellQuest software (BD Immunocytometry Systems) or with FlowJo software version 6.3.2 (Tree Star, Inc.). […]

B cells = assay: Apoptosis of anti-IgM F(ab')2/anti-CD40-stimulated purified B cells; format: cell-based, mouse; conditions: 30 μg/ml lipid, anti-IgM F(ab')2 and anti-CD40, 48 hours
Method: Anti-IgM F(ab′)2 fragment/anti-CD40-stimulated purified B cells: We harvested spleens from naive C57BL/6 mice and used a B-cell isolation kit (Miltenyi Biotec) to negatively isolate B cells. We then stimulated 5×10^5 cells/ml of B cells with 5 μg/ml of each of soluble anti-IgM F(ab′)2 fragment (Jackson ImmunoResearch) antibody and anti-CD40 antibody (eBioscience) in the presence of 30 μg/ml of POPS, PGPC, azPC ester, or azPC.
Cells were stained according to standard protocols, run on a FACScan flow cytometer (BD Biosciences), and analysed with CellQuest software (BD Immunocytometry Systems) or with FlowJo software version 6.3.2 (Tree Star, Inc.). The antibody conjugates used were FITC anti-CD4 (clone GK1.5, BD Pharmingen), FITC anti-mouse CD8 (clone 53-6.7, BD Pharmingen), FITC anti-mouse CD3 (clone 145-2C11, eBioscience), PE-anti-rat IgG2A isotype control (BD Pharmingen), and PE-anti-mouse CD69 (clone H1.2F3, eBioscience). 7AAD staining was performed by using the Annexin V-PE Apoptosis Detection Kit I (BD Pharmingen).

SMILES: CCCCCCCCCCCCCCCC(=O)OC[C@H](COP(=O)([O-])OCC[N+](C)(C)C)OC(=O)CCCC(=O)O [PGPC, 1-Palmitoyl-2-Glutaroyl-sn-Glycero-3-Phosphocholine]
- EAE severity (clinical score) [1]: reduced the severity of EAE
- CD4+CD69+ cells (CD4+ T cells): 7.96%
- CD69−CD4+ cells (CD4+ T cells): 55.2%

SMILES: CCCCCCCC/C=C\CCCCCCCC(=O)O[C@H](COC(=O)CCCCCCCCCCCCCCC)COP(=O)(O)OC[C@H](N)C(=O)O [POPS, 1-Palmitoyl-2-Oleoyl-sn-Glycero-3-[Phospho-L-Serine]]
- apoptosis of activated B cells (B cells): increased apoptosis
